From patent US20230086119A1, “ANTICANCER AGENT CONTAINING RHOA PEPTIDE INHIBITOR AS AN ACTIVE INGREDIENT” (EL MED, priority 2020, published 2023)
Where a SMILES comes first, the peptide text is derived from it. [ ]: non-standard residue; d: D form. The star is where a group is joined. ξ: configuration not given here. Biotinyl(4ξ) = O=C1N[C@H]2CSC(CCCCC(=O)*)[C@H]2N1; pY = N[C@@H](Cc1ccc(OP(=O)(O)O)cc1)C(=O)O; ξIle = CC[C@H](C)C(N)C(=O)O

Assays:
[1] = test system: HepG2 cells; experiment: MTT proliferation, substituted amino acids of EM3 (FIGS. 39, 40); type: cell-based; conditions: DMEM 2.5% FBS 48 hours, FIG. 40 legend
Protocol: FIGS. 39 and 40 show the effect of the substituted amino acids of EM3 on cell proliferation, and the present inventors have designed various peptide inhibitors replaced with other amino acids. The cells were cultured in DMEM containing 2.5% FBS for 48 hours and cell proliferation was measured by MTT assay.

[2] = test system: HEK293T cells; experiment: Cell migration by wound healing method in response to Wnt3A; type: cell-based; conditions: 1 μM, Wnt3A 30 ng/ml, 48 hours, FIG. 42
[3] = test system: cyclin D1 and c-Myc; experiment: Wnt3A-induced cyclin D1 and c-Myc expression, Western blotting; type: cell-based; conditions: HEK293T; pretreated one hour; Wnt3A 30 ng/mL two hours; FIG. 9
Protocol: HEK293T cells were collected and washed with ice-cold PBS, and dissolved with RIPA buffer (50 mM Tris-HCl (pH7.4), 150 mM NaCl, 1% Nonidet P-40, 0.25% NaN3, 1 mM EDTA, 1 mM PMSF, 1 μg/mL aprotinin, 1 μg/mL leupeptin, 1 μg/mL pepstatin, 1 mM sodium orthovanadate, and 1 mM NaF). The cell lysate was centrifuged at 13,475×g for 20 minutes and the supernatant was analyzed for protein concentration using the BCA Protein Assay Kit (Pierce; Rockford, USA). Proteins of the cell lysate were run on SDS-PAGE and transferred to a PVDF membrane (Millipore; Billerica, USA). Anti-RhoA ( 1/500), anti-actin (Santa Cruz; Dallas, Calif.), anti-GSK-3β( 1/500), anti-phospho (Ser9)-GSK-3β( 1/500) (both Cell Signaling, Beverly, USA), anti-O-catenin ( 1/1000) (Invitrogen, Carlsbad, USA), anti-active β-catenin ( 1/500) (Millipore, Billerica, USA), and anti-Tau ( 1/500) (Biosource; Camarillo, Calif.) antibodies were incubated with PVDF membranes at room temperature for 2 hours, and then each was washed 3 times for 5 minutes. […] The strength of the band was quantified with the ImageJ program of the U.S. National Institutes of Health (Bethesda, USA).

[4] = test system: HEK293T cells; experiment: Wnt3A-induced cell proliferation, fluorescence microscopy; type: cell-based; conditions: Tat-C3 1 μg/mL, Y27632 10 μM pretreated one hour; Wnt3A 30 ng/mL two days; FIG. 6
Protocol: (§1) All cells tested were cultured in Dulbecco's Modified Eagle Medium (DMEM; Weljin, Gyeongsan) containing 5% fetal bovine serum (FBS; GIBCO, Carlsbad, USA) and 1% penicillin-streptomycin (complete medium) under 5% CO2 at 37° C.

[5] = test system: macrophage cell line RAW264.7; experiment: Wnt3A-mediated cell proliferation, fluorescence microscopy; type: cell-based, mouse; conditions: Tat-C3 1 μg/mL, Y27632 10 μM pretreated one hour; Wnt3A 30 ng/mL two days; FIG. 7
Protocol: as §1

[6] = test system: HEK293T cells; experiment: MTT proliferation with stimulants (FIG. 37); type: cell-based; conditions: pre-incubated one hour, stimulant 48 hours
Protocol: (§2) The MTT assay was performed to measure the proliferation of various cancer cell lines, such as HEK293T, LN18 glioma, HepG2 liver cancer, AGS gastric cancer, and A549 lung cancer cells.

[7] = test system: LN18 cells; experiment: MTT proliferation with stimulants (FIG. 37); type: cell-based; conditions: pre-incubated one hour, stimulant 48 hours
Protocol: as §2

[8] = test system: A549 cells; experiment: MTT proliferation with stimulants (FIG. 37); type: cell-based; conditions: pre-incubated one hour, stimulant 48 hours
Protocol: as §2

[9] = test system: HepG2 cells; experiment: MTT proliferation with stimulants (FIG. 37); type: cell-based; conditions: pre-incubated one hour, stimulant 48 hours
Protocol: as §2

[10] = target: T1, p-Tyr42 RhoA and β-catenin (Homo sapiens, UniProt P35222); experiment: Co-immunoprecipitation of p-Tyr42 RhoA with β-catenin after Wnt3A; type: cell-based; conditions: cells pretreated with inhibitor, then Wnt3A; FIGS. 20 and 21
T1 construct: endogenous in cells
T1 sequence (P35222 2-781 limits assumed): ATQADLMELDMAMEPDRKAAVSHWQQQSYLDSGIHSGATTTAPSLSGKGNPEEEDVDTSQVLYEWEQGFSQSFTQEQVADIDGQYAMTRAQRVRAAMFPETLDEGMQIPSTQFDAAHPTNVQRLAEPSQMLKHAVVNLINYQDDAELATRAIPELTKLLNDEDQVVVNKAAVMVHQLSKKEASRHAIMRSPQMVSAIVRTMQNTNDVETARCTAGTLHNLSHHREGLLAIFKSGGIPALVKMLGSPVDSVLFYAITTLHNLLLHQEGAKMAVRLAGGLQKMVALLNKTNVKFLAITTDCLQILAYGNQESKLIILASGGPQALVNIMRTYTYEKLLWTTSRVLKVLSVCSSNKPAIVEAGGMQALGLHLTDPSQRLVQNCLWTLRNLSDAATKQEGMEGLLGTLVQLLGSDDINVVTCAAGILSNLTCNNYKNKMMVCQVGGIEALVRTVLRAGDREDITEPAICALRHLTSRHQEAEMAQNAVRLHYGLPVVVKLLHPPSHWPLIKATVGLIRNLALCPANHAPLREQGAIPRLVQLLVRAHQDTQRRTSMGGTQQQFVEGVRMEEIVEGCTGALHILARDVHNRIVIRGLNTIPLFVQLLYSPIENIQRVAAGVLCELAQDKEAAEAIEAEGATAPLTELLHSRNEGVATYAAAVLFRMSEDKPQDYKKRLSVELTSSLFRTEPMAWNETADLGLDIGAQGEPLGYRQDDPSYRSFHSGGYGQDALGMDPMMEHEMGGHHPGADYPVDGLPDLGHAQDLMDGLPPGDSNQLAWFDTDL
Protocol: HEK293T cells were collected and washed with ice-cold PBS, and dissolved with RIPA buffer (50 mM Tris-HCl (pH7.4), 150 mM NaCl, 1% Nonidet P-40, 0.25% NaN3, 1 mM EDTA, 1 mM PMSF, 1 μg/mL aprotinin, 1 μg/mL leupeptin, 1 μg/mL pepstatin, 1 mM sodium orthovanadate, and 1 mM NaF). The cell lysate was centrifuged at 13,475×g for 20 minutes and the supernatant was analyzed for protein concentration using the BCA Protein Assay Kit (Pierce; Rockford, USA). Proteins of the cell lysate were run on SDS-PAGE and transferred to a PVDF membrane (Millipore; Billerica, USA). Anti-RhoA ( 1/500), anti-actin (Santa Cruz; Dallas, Calif.), anti-GSK-3β( 1/500), anti-phospho (Ser9)-GSK-3β( 1/500) (both Cell Signaling, Beverly, USA), anti-O-catenin ( 1/1000) (Invitrogen, Carlsbad, USA), anti-active β-catenin ( 1/500) (Millipore, Billerica, USA), and anti-Tau ( 1/500) (Biosource; Camarillo, Calif.) antibodies were incubated with PVDF membranes at room temperature for 2 hours, and then each was washed 3 times for 5 minutes. Thereafter, the membrane was incubated for 1 hour with anti-rat IgG antibody or anti-mouse IgG antibody conjugated with horse radish peroxidase (HRP) (both provided by ENZO Life Science; Farmingdale, USA, 1/1000 dilution) and each was washed later three times for 10 minutes. The membrane was incubated with an enhanced chemiluminescence (ECL) reagent (Amersham; Uppsala, Sweden) and then exposed to an X-ray film. The strength of the band was quantified with the ImageJ program of the U.S. National Institutes of Health (Bethesda, USA).
1×10^7 Cells were washed with 1×PBS, and the cell lysate was prepared using cell lysis buffer (20 mM Tris pH 7.4, 120 mM NaCl, and 1% Nonidet P-40) containing 10 μg/mL each of leupeptin and aprotinin and each of NaF, Na3VO4, PMSF and 5 mM MgCl2. The lysate was used for immunoprecipitation by specific antibodies. […]

[11] = test system: RAW264.7 cells; experiment: MTT proliferation, FBS-stimulated (FIG. 38); type: cell-based, mouse; conditions: pretreated one hour, 2% FBS 48 hours
Protocol: (§3) The MTT assay was performed to measure the proliferation of various cancer cell lines, such as HEK293T, LN18 glioma, HepG2 liver cancer, HT29 colon cancer, 4T1 mouse breast cancer, and RAW264.7 mouse macrophages.

[12] = test system: 4T1; experiment: MTT proliferation, FBS-stimulated (FIG. 38); type: cell-based, mouse; conditions: pretreated one hour, 2% FBS 48 hours
Protocol: as §3

[13] = test system: 4T1 cells; experiment: Xenotransplantation experiment with 4T1 cells in BALB/c mice; type: in vivo; conditions: EM3 2.5 mM, 10 μL/mouse daily
Protocol: Animal care and experiments were performed by the approval of the Institutional Animal Care and Use Committee (HIRB-2016-52) of Hallym University. Male BALB/c mice (7 weeks old) were injected with 4T1 cells (5×10^5 cells in […] of 1×PBS), and randomly assigned to an EM3 treatment group (7 mice) or the control group (6 mice). The normal group also included two non-tumor mice. Cells were injected subcutaneously and EM3 (2.5 mM, 10 μL/mouse) and 1× PBS (10 μL/mouse) were applied daily. Tumor volume was measured daily and tumor weight and spleen size were measured after sacrificing the mice.

[14] = test system: LN18; experiment: MTT proliferation, FBS-stimulated (FIG. 38); type: cell-based; conditions: pretreated one hour, 2% FBS 48 hours
Protocol: as §3

[15] = test system: HepG2; experiment: MTT proliferation, FBS-stimulated (FIG. 38); type: cell-based; conditions: pretreated one hour, 2% FBS 48 hours
Protocol: as §3

[16] = test system: HT29; experiment: MTT proliferation, FBS-stimulated (FIG. 38); type: cell-based; conditions: pretreated one hour, 2% FBS 48 hours
Protocol: as §3

[17] = test system: HEK293T; experiment: MTT proliferation, FBS-stimulated (FIG. 38); type: cell-based; conditions: pretreated one hour, 2% FBS 48 hours
Protocol: as §3

NFVA [HL7]
inhibitory effect on HepG2 cell proliferation, compared with EM3 [1]: less effective than EM3

CC[C@H](C)C(NC(=O)[C@H](CC(=O)O)NC(=O)[C@H](C)NC(=O)[C@@H](NC(=O)[C@H](Cc1ccc(O)cc1)NC(=O)[C@H](CC(N)=O)NC(=O)[C@H](CCC(=O)O)NC(=O)[C@H](Cc1ccccc1)NC(=O)[C@@H](NC(=O)[C@@H](NC(=O)CCCCC1SC[C@@H]2NC(=O)N[C@H]12)[C@@H](C)O)C(C)C)C(C)C)C(=O)N[C@@H](CCC(=O)O)C(=O)O (stereo partly shown) [EM4] ({Biotinyl(4ξ)}-TVFENYVAD[ξIle]E-OH)
migration of HEK293 cells in response to Wnt3A [2]: reducing the migration

NYLA [HL5]
inhibitory effect on HepG2 cell proliferation, compared with EM3 [1]: less effective than EM3

C[C@@H](N)[C@H]1CC[C@H](C(=O)Nc2ccncc2)CC1 [Y27632]
Wnt3A-increased expression of cyclin D1 and c-Myc [3]: abolished this increased expression
proliferation of HEK293T cells by Wnt3A [4]: abolished
Wnt3A-mediated proliferation in RAW264.7 [5]: inhibited

CC(C)[C@H](NC(=O)[C@H](Cc1ccc(OP(=O)(O)O)cc1)NC(=O)[C@@H](N)CC(N)=O)C(=O)N[C@@H](C)C(N)=O [PR3] (H-N[pY]VA-NH2)
migration of HEK293 cells in response to Wnt3A [2]: reducing the migration
proliferation of HEK293T cells by LPS [6]: significantly inhibited
proliferation of HEK293T cells by Wnt3A [6]: significantly inhibited
proliferation of HEk293T cells by H2O2 [6]: significantly inhibited
proliferation of LN18 cells by EGF [7]: significantly inhibited
proliferation of A549 cells by PMA [8]: significantly inhibited
proliferation of HepG2 cells by insulin [9]: significantly inhibited
co-immunoprecipitation of p-Tyr42 RhoA and β-catenin [10]: inhibited

AYVA [HL1]
inhibitory effect on HepG2 cell proliferation, compared with EM3 [1]: less effective than EM3

CC(C)[C@H](NC(=O)[C@H](Cc1ccc(O)cc1)NC(=O)[C@@H](N)CC(N)=O)C(=O)N[C@@H](C)C(N)=O [PR2] (H-NYVA-NH2)
proliferation of HEK293T cells by LPS [6]: significantly inhibited
proliferation of HEK293T cells by Wnt3A [6]: significantly inhibited
proliferation of HEk293T cells by H2O2 [6]: significantly inhibited
proliferation of LN18 cells by EGF [7]: significantly inhibited
proliferation of A549 cells by PMA [8]: significantly inhibited
proliferation of HepG2 cells by insulin [9]: significantly inhibited
co-immunoprecipitation of p-Tyr42 RhoA and β-catenin [10]: inhibited

NYVS [HL4]
inhibitory effect on HepG2 cell proliferation, compared with EM3 [1]: less effective than EM3

NYVA-NH2 [EM3]
proliferation of FBS-stimulated RAW264.7 cells [11]: significantly inhibited
proliferation of FBS-stimulated 4T1 cells [12]: significantly inhibited
tumor volume ([13]; 4T1 cells subcutaneous, FIG. 43A): dramatically decreased
tumor weight ([13]; 4T1 cells subcutaneous, after sacrifice, FIG. 43B): dramatically decreased
spleen size ([13]; 4T1 tumor, after sacrifice, FIG. 43C): same size compared to control mice
proliferation of FBS-stimulated LN18 cells [14]: significantly inhibited
proliferation of FBS-stimulated HepG2 cells [15]: significantly inhibited
proliferation of FBS-stimulated HT29 cells [16]: significantly inhibited
proliferation of FBS-stimulated HEK293T cells [17]: significantly inhibited
migration of HEK293 cells in response to Wnt3A [2]: reducing the migration
co-immunoprecipitation of p-Tyr42 RhoA and β-catenin [10]: inhibited
